Experimental data taken from ChEMBL document CHEMBL5661955, “ASAP - In vitro cytotoxicity” (2024).
Values joined by “and” are separate entries in the source; they are usually repeats but may differ in a detail not shown here. Equal values may be shown once.

What was measured:
[1] = Functional assay to measure dose dependent changes in cell viability from drug treatment in Vero E6 miRFP670 cells (cotreated with P-gp inhibitor, CP100356) that are infected with Dengue virus type 2 New Guinea C. […] Cytotoxicity is reported via via analysis of DAPI count using high-content imager. The assay has been performed by KU Leuven.; assay type: toxicity, cell-based, Vero C1008; conditions: chlorocebus sabaeus, p-gp concentration 500 nM
[2] = Functional metabolic assay to measure dose dependent changes in cell viability from drug treatment in Vero E6/TMPRSS2 cells (cotreated with P-gp inhibitor, Elacridar). […] Cytotoxicity is reported via measuring absorbance and analysis of MTT/MTS assays in uninfected cells. The assay has been performed by Icahn School of Medicine at Mount Sinai.; assay type: toxicity, cell-based, VeroE6/TMPRSS2; conditions: chlorocebus sabaeus, p-gp concentration 2 uM
[3] = (§1) Functional CPE-based assay to measure dose dependent changes in cell viability from drug treatment in Vero E6 miRFP670 cells. Cells are treated with antiviral candidates that have been serially diluted. Cytotoxicity is reported via analysis of MTS assays in uninfected cells. The assay has been performed by KU Leuven.; assay type: toxicity, Vero C1008; conditions: chlorocebus sabaeus
[4] = Functional metabolic assay to measure dose dependent changes in cell viability from drug treatment in Vero E6/TMPRSS2 cells. Cells are treated with antiviral candidates that have been serially diluted. Cytotoxicity is reported via measuring absorbance and analysis of MTT/MTS assays in uninfected cells. The assay has been performed by Icahn School of Medicine at Mount Sinai.; assay type: toxicity, cell-based, VeroE6/TMPRSS2; conditions: chlorocebus sabaeus; for CC50: Vero E6/TMPRSS2 cells; for CC10: veroe6/tmprss2
[5] = as §1, with “Huh-7” for “Vero E6 miRFP670”, “of MTT/” for “of”, “National Institute of Allergy and Infectious Diseases.” for “KU Leuven.”; assay type: toxicity; conditions: human
[6] = as §1, with “metabolic” for “CPE-based”, “HeLa” for “Vero E6 miRFP670”, “MTT/MTS” for “MTS”; assay type: toxicity, cell-based; conditions: human
[7] = as §1, with “miRFP670 cells (cotreated with P-gp inhibitor, CP100356).” for “miRFP670 cells.”; assay type: toxicity, Vero C1008; conditions: chlorocebus sabaeus
[8] = with CP100356 (P-gp inhibitor, concentration not stated)
[9] = Vero E6/TMPRSS2 cells, with Elacridar (P-gp inhibitor, concentration not stated)
[10] = Vero E6 miRFP670 cells, with CP100356 (P-gp inhibitor, concentration not stated), p-gp concentration 500 nM

| SMILES | CC50 [1, 8] [µM] | CC50 [2, 9] [µM] | CC50 ([3]; Vero E6 miRFP670 cells) [µM] | CC50 [4] [µM] | CC10 [4] [µM] | CC50 [5] [µM] | CC10 ([2]; veroe6/tmprss2) | further results |
| --- | --- | --- | --- | --- | --- | --- | --- | --- |
| CC(C)CNC(=O)c1cc(Cl)c(F)cc1NS(=O)(=O)c1ccc(Oc2ccccc2Cl)cc1 | > 10 | 49.4 | 4.96 | > 50 | > 50 | 3.1 |  | CC50 ([1]; vero c1008): 5.35 µM; CC50 ([2]; veroe6/tmprss2): 38.1 µM; CC50 ([3]; vero c1008): 5.79 µM and 3.21 µM |
| CC(C)CNC(=O)c1cc(Cl)ccc1NS(=O)(=O)c1ccc(Oc2ccccc2Cl)cc1 | > 10 |  | 4.76 | > 50 | > 50 | 6.5 |  | CC50 ([2]; veroe6/tmprss2): > 50 µM |
| O=C(Nc1cc(Cl)cc(C(=O)Nc2cccc(-c3nnn[nH]3)c2)c1)OCc1ccccc1 |  | > 50 |  | > 50 | > 50 |  | 0.117 µM |  |
| O=C(Nc1ccc2c(c1)CNC2)c1ccnc2[nH]ccc12 |  |  |  |  |  |  |  | CC50 ([6]; HeLa cells): > 50 µM; CC10 ([6]; hela): > 50 µM |
| c1cc(C2CCN(Cc3c[nH]c4ccccc34)CC2)c2ccncc2c1 |  | > 50 |  | > 50 | > 50 | 32 | > 50 µM | CC50 ([1]; vero c1008): > 50 µM |
| CCc1cc(C(=O)Nc2cccc(CN)c2)sc1-c1ccc(Cl)cc1 |  | 9.12 | 4.86 | 13.9 | 15.317 |  | 0.452 µM |  |
| O=C(NCC(F)(F)F)c1cc(Cl)c(F)cc1NS(=O)(=O)c1ccc(Oc2ccccc2Cl)cc1 | > 10 |  | 3.98 |  |  | 1.9 |  | CC50 ([1]; vero c1008): 5.65 µM |
| CC[C@@H](Cc1nnn[nH]1)c1ccc(NC(=O)c2cc(Cl)cc(NC(=O)OCc3ccccc3)c2)cc1 | > 50 | > 50 | > 50 | > 50 | > 50 |  | > 50 µM |  |
| COc1cc(N[C@@H](C(=O)N2CCc3ccc(OC(F)(F)F)cc32)c2ccc(Cl)cc2)cc(OCCCC(=O)O)c1 |  |  |  |  |  | 19 | > 10 µM and 7.237 µM | CC50 ([2]; veroe6/tmprss2): > 10 µM and 37.7 µM; CC50 ([3]; vero c1008): > 50 µM and 19.7 µM and 11.3 µM; CC50 [7, 10]: 11.1 µM |
| Cc1cc(-c2ccc([C@@H](NC(=O)OCc3ccccc3)C(=O)Nc3cccc(CN)c3)cc2)cs1 |  | 21.2 |  | 6.25 | 7.281 |  | 0.089 µM |  |
| NCc1cccc(C(=O)Nc2cc(Cl)cc(NC(=O)OCc3ccccc3)c2)c1 |  | > 10 |  | 6.67 | 8.366 |  |  | CC50 ([2]; veroe6/tmprss2): 19.3 µM |
| NCCc1cccc(NC(=O)[C@H]2[C@H]3CCCCC[C@H]3[C@H]2NC(=O)OCc2ccccc2)c1 | 7.53 | 4.88 | 7.48 | 1.78 | 2.002 |  | 0.282 µM |  |
| Cc1ccc(NC(=O)c2cc(Cl)cc(NC(=O)OCc3ccccc3)c2)cc1CN | 4.33 | 15 | 5.18 | 6.64 | 8.104 |  |  | CC50 ([2]; veroe6/tmprss2): 15.2 µM; CC50 [7, 10]: 5.8 µM |
| Cc1[nH]c2ccccc2c1CN1CCC(c2c[nH]c3ncccc23)CC1 | 31 | > 10 | 25.2 | > 50 | > 50 |  |  |  |
| O=C(O)c1cc(Cl)ccc1NS(=O)(=O)c1ccc(Oc2ccccc2Cl)cc1 |  |  |  | > 50 | > 50 |  |  |  |
| O=C(Nc1cc(Cl)cc(C(=O)Nc2cccc(-n3nn[nH]c3=O)c2)c1)OCc1ccccc1 | > 50 |  | > 50 | > 50 | > 50 |  |  |  |
| COc1cc(N[C@@H](C(=O)c2c[nH]c3ccc(OC(F)(F)F)cc23)c2ccc(Cl)cc2OC)cc(S(C)(=O)=O)c1 |  | > 10 |  | > 10 | > 10 | 5 |  | CC50 [7, 10]: 1.49 µM |
| C[C@@]1(O)[C@H](O)[C@@H](CO)O[C@H]1n1ccc2c(N)ncnc21 [BETA-2'-C-METHYL-7-DEAZA-ADENOSINE] |  | > 10 | > 50 | > 10 | > 10 |  |  | CC50 ([1]; vero c1008): 24.6 µM and > 200 µM; CC50 ([7]; vero c1008, p-gp concentration 100 nM): > 50 µM; CC50 ([7]; vero c1008, p-gp concentration 500 nM): > 200 µM |
